Data taken from publication PMC11642994, “AGC family kinase of Entamoeba histolytica: Decoding the members biochemically” (PLOS Pathogens, 2024).
Where “and” joins values, the source holds several entries; their conditions need not be identical. Identical values can stand only once. Entries after “also recorded” stand apart in the source; their conditions may differ. Like-named read-outs stand apart in the source and are kept apart here.

How the values were obtained:
EhAGCK1 = test: ADP-Glo kinase assay with peptide substrates / ATP, EhAGCK1 WT; type: biochemical, Entamoeba histolytica; settings: for phosphorylation by EhAGCK1 WT (words): 1 hr
Method: (§1) The phosphorylation activity of kinases was measured using the ADP-Glo kinase assay kit according to the manufacturer’s protocol with few modifications (Promega, Madison, WI, Catalogue number V6930). Assays were performed in a Corning 384-well low-volume white round bottom polystyrene NBS microplate with a total volume of 32 μl in the ratio of 1:1:2, corresponding to the kinase reaction, ADP-Glo reagent, and detection reagent, respectively. The kinase reaction was performed in an 8 μl volume containing 4 μl of purified protein kinases, 2 μl of peptide substrate, and 2 μl of ATP (Promega, Madison, WI). The working concentration of all the kinase reaction components was prepared in the standard kinase assay buffer (40 mM Tris-Cl pH 7.5, 20 mM MgCl2, 2 mM DTT). Along with other controls, only buffer-negative controls without protein kinase, substrate, and ATP were included in the kinase assay. Kinase assay reactions in each well were started immediately by adding ATP. The reactions were allowed to continue for 1 h at 30°C in the incubator chamber without shaking. The kinase assay was quenched by adding 8 μl of ADP-Glo reagent in each well before adding ADP-Glo reagent. The reaction plate was incubated for 5 min at room temperature. Termination reactions were allowed to proceed for 40 min at room temperature. ADP-Glo reagent, in addition to quenching the reaction, scavenges the unconsumed ATP from the reaction. In the final step of the ADP-Glo kinase assay, 16 μl of kinase detection reagent was added to each well and incubated for 40 min to simultaneously convert ADP to ATP and allow the newly synthesised ATP to be measured using a luciferase/luciferin reaction. The luminescent signal generated was measured using a SpectraMax i3x Multi-Mode Microplate Reader (Molecular Devices), and it was proportional to the ADP concentration produced and correlated with the kinase activity.
(§2) Standard curves were constructed by plotting the saturating relative light units (RLU) for each sample against the concentration of the peptide substrate or ATP in the reaction, following the previously reported method. The slope of the standard curve was determined and used to convert the reaction rate velocities. Velocities were expressed in μM/min by calculating the rate of reaction (DY/DX) for each reaction, where DY represented the difference between the luminescence measurements at the beginning and end of the reaction, and DX denoted the duration of the reaction (total time of reaction: 60 min). The converted velocities were plotted against the substrate concentration, and the data were fitted to the Michaelis-Menten equation to determine Km and Vmax.
(§3) The kinase assay data presented here are the mean ± standard error (SE) of n≥3 of three independent experiments. The Km and Vmax were determined from a direct, nonlinear fit of [V] versus [S] plots using the Michaelis-Menten equation: V=Vmax[S]/Km+[S] using the GraphPad Prism 9.0 software package (GraphPad Software Inc., CA, USA). Additionally, the Microscale Thermophoresis (MST) experiments were conducted using the Monolith NT.11.5 instrument, with triplicate runs. Statistical comparisons were made using Student’s t-test. Differences in mean values were considered significant at *p-value≤0.05, **p-value≤0.01, ***p-value≤0.001, ****p-value≤0.0001.

EhAGCK2 = test: ADP-Glo kinase assay with peptide substrates / ATP, EhAGCK2 WT; type: biochemical, Entamoeba histolytica; settings: for ATP Vmax / Km: mean ± SE, n = 6
Method: as §1, §2, §3

autophosphorylation = test: ATP biotinylation kinase assay (autophosphorylation, SA-HRPO western blot); type: biochemical, Entamoeba histolytica; settings: 4 μM kinase (EhPDK1 2 μM), 20 μM biotin-labelled ATP, 40 mM Tris-Cl pH 7.8, 10 mM MgCl2, 2 mM DTT, 30°C, 1 h
Method: ATP biotinylation assays were performed in the presence of 4 μM of EhAGCK1 (WT, T275D, and KDD1) and EhAGCK2 (WT, T274D, and KDD2) along with 2 μM of wild-type EhPDK1 in the presence of activation buffer 40 mM Tris-Cl pH 7.8, 10 mM MgCl2, and 2 mM DTT and incubated at 30°C for 1 h. The reaction was triggered by adding 20 μM biotin-labelled ATP (Catalogue NU-970-BIO, Jena Bioscience). 20 μl of the reaction was collected at the indicated time point and quenched by the addition of 4x SDS-loading dye. After gel electrophoresis, phosphorylated proteins were visualized by immunoblotting using HRPO-conjugated streptavidin (Invitrogen).
ATP biotinylated protein samples were separated by SDS-PAGE and then electro-transferred to PVDF membrane (Pall life sciences). The membrane was blocked overnight by 5% BSA (G-Biosciences) in TBS-T (TBS with 0.1% Tween 20) and stained with Ponceau S. This blocking process was done overnight at 4°C. The membrane was then incubated with 1:1000 dilution of HRPO-conjugated streptavidin (Invitrogen) at room temperature. Following antibody incubation, the blots were carefully cleaned with TBS-T. Band detection was carried out with a Millipore ECL kit.

HsGSK3 peptide = test: ADP-Glo kinase activity of kinase variants with human GSK3 peptide in MgCl2 and MnCl2 buffers; type: biochemical; settings: for kinase activity with HsGSK3 peptide in Mg2+ / without Mn2+ (words): kinase 0-80 μM
Method: as §1, §3

[1] = S3 Table, ADP-Glo, Michaelis-Menten fit at various substrate concentrations, 20 μM kinase, 250 μM ATP, mean ± SE, n = 6, read-out: Peptide Km in the presence of EhAGCK1
[2] = S3 Table, ADP-Glo, Michaelis-Menten fit at various substrate concentrations, 20 μM kinase, 250 μM ATP, read-out: Peptide Km in the presence of EhAGCK2

Molecule: Nc1ncnc2c1ncn2[C@@H]1O[C@H](COP(=O)(O)OP(=O)(O)OP(=O)(O)O)[C@@H](O)[C@H]1O [ATP, reference compound]
- Km (EhAGCK1; EhAGCK1 WT 20 μM, 50 μM EhRhoGEF peptide substrate, ATP 0-1000 μM, mean ± SE, n = 6, read-out: ATP Km): 125 ± 16 µM
- ATP Vmax (EhAGCK1; EhAGCK1 WT 20 μM, 50 μM HsGSK3 peptide substrate, ATP 0-1000 μM, mean ± SE, n = 6): 260.7 ± 9.4 µM/min
- Km (EhAGCK1; EhAGCK1 WT 20 μM, 50 μM HsGSK3 peptide substrate, ATP 0-1000 μM, mean ± SE, n = 6, read-out: ATP Km): 242 ± 22.2 µM
- ATP Vmax (EhAGCK2; EhAGCK2 WT 20 μM, 50 μM EhCoactosin peptide substrate, ATP 0-1000 μM): 444.4 ± 18.5 µM/min
- Km (EhAGCK2; EhAGCK2 WT 20 μM, 50 μM EhCoactosin peptide substrate, ATP 0-1000 μM, read-out: ATP Km): 92.1 ± 16 µM
- ATP Vmax (EhAGCK2; EhAGCK2 WT 20 μM, 50 μM HsGSK3 peptide substrate, ATP 0-1000 μM): 271.4 ± 30.5 µM/min
- Km (EhAGCK2; EhAGCK2 WT 20 μM, 50 μM HsGSK3 peptide substrate, ATP 0-1000 μM, read-out: ATP Km): 292 µM and 291 µM

Molecule: ELDSDEEQKELER [Filamin-A interacting protein]
- phosphorylation by EhAGCK1 WT (words) (EhAGCK1; 20 μM EhAGCK1 WT, 250 μM ATP): recognized as substrates by EhAGCK1 WT
- phosphorylation by EhAGCK1 WT (words) (EhAGCK1; 20 μM EhAGCK1 WT, 250 μM ATP, listed as Filamin-A-interacting protein): specifically phosphorylated
- Km (EhAGCK1; ADP-Glo luminescence, 20 μM EhAGCK1 WT, 250 μM ATP, peptide 0-200 μM, 30°C, 60 min, standard buffer 40 mM Tris-Cl pH 7.5, 20 mM MgCl2, 2 mM DTT, Michaelis-Menten fit, mean ± SE, n = 6, read-out: Km (peptide substrate)): 3.28 ± 1.19 µM
- Km (EhAGCK1; [1]): 3.28 ± 1.19 µM
- Km (EhAGCK2; [2]): 0.147 µM

Molecule: KSPTIDEIK [Hypothetical protein, peptide 133-141 of E. histolytica Hypothetical protein (EHI_025430)]
- phosphorylation by EhAGCK1 WT (words) (EhAGCK1; 20 μM EhAGCK1 WT, 250 μM ATP): notable phosphorylation by EhAGCK1
- Km (EhAGCK1; [1]): 2.56 ± 0.99 µM
- Km (EhAGCK2; [2]): 0.197 ± 0.08 µM

Molecule: KTITPVVEDPCER [HEAT repeat domain-containing protein, peptide 661-673 of E. histolytica HEAT repeat domain-containing protein (EHI_050150)]
- phosphorylation by EhAGCK1 WT (words) (EhAGCK1; 20 μM EhAGCK1 WT, 250 μM ATP): notable phosphorylation by EhAGCK1
- Km (EhAGCK1; [1]): 3.62 ± 1.34 µM
- Km (EhAGCK2; [2]): 0.262 ± 0.2 µM

Molecule: MAGIQLADEVTSVYNDF KLSHKYRYIV [Actophorin, peptide 1-27 of E. histolytica Actophorin (EHI_197480)]
- Km (EhAGCK1; [1]): 2.83 ± 1.69 µM
- Km (EhAGCK2; [2]): 0.258 ± 0.09 µM

Molecule: RRESVDYTNNK [Unconventional Myosin IB, peptide 754-764 of E. histolytica Unconventional myosin IB (EHI_110810)]
- Km (EhAGCK1; [1]): 3.63 ± 2.58 µM
- phosphorylation by EhAGCK2 WT (EhAGCK2; 20 μM EhAGCK2 WT, 250 μM ATP, 1 hr): recognised as substrates by EhAGCK2 WT; also recorded: accepted as substrates by EhAGCK2 WT
- Km (EhAGCK2; ADP-Glo luminescence, 20 μM EhAGCK2 WT, 250 μM ATP, peptide 0-200 μM, 30°C, 60 min, standard buffer 40 mM Tris-Cl pH 7.5, 20 mM MgCl2, 2 mM DTT, Michaelis-Menten fit, read-out: Km (peptide substrate)): 1.34 ± 0.57 µM
- Km (EhAGCK2; [2]): 1.34 ± 0.57 µM

Molecule: SALDNGTYSPLLSPTR [RhoGEF-1, peptide 236-251 of E. histolytica RhoGEF-1 (EHI_159500)]
- Km (EhAGCK1; [1]): 4.42 ± 2.75 µM
- Km (EhAGCK2; [2]): 0.271 ± 0.17 µM

B1: KDD2: kinase-dead domain EhAGCK2 (K147A and D242A) (protein)
chain: MSVKTGWGIKEGGSWKTWKRRMFKLSEGKIEYFKDEGMTKKMGDIELSKVTHVLAVDQYKKRKNLIRIITPSRTYHISVNEESDRDSWVEAIRGMIGDNKEKKTQEEKEENKISMEDFDIITLLGKGAFGKVMLVKYKKEGKIYAMATVEKAQIIDSNEVEHILSEKVVLSQINNPFLVNMHYSFQTPTHLVFILDYCAGGELFSYLQKHPAGLPEVDVKFYAAQIVLALEHMHSTGIIYRAIKPENILFEKDGYLRMTDFGLAKSTKKGTTNTFCGTPEYLAPEVVEGLDYNEYIDWWGLGILIYEMLFTQSPFLAETMEELYENILQREPKYPSTKPITEECMNFINSLLIKEPSKRLTDPDQIKTHPWFNGFNFDDLYKKKLTPPYVPKIQSQTDTSNFDDEITQEEVDLKTGVEVVADNRFFTDFTYVQK
modifications: left off: His tag, end not stated, kept
- autophosphorylation activity (words) (autophosphorylation): remain inactive

B2: EhAGCK1 WT: recombinant full-length wild-type His-tagged AGC family kinase 1 of E. histolytica (protein)
chain: MEEKTQGWLMKEGGSWKSWKKRYFVLDNDTLYYYKEQDKKTLMGTMNLSLATHITAVDNYHKKYENIIRICTPSRTFHLSAANEEERLAWLTSIICHSEKTNICKPRISSVPVTQKDFDVKCLLGKGAYGKVFLVEMISTHEIFAMKTIEKKQIIEYEEIEHTMSERRILSKLHHPFLVNLYYSFQTPTHLFYIIDYCPGGEFYYYLQKNGKVSEEDAKFYAAQILLAIEHLHSSNIVYRDIKPENILIGADGYLRLTDFGLSKENVTKENTTSTFCGTPEYLAPEVVVGKDYSEPVDWWGFGILIYEMIHGHAPFTSEDIQQLFQKIIHDPVSFPSASYPSADCKECIVMLLEKDPEKRLTDPNRIKSHCWFKGFDWEGLFQKKLSPPFVPVLKDKTDTSNFNEDIINETAKIDEGEVVDSKDYFNDFTYCK
modifications: left off: His tag, end not stated, kept
notes: recombinant full-length wild-type His-tagged AGC family kinase 1 of E. histolytica
- kinase activity with HsGSK3 peptide in Mg2+ / without Mn2+ (words) (HsGSK3 peptide; 50 μM HsGSK3 peptide, 250 μM ATP): did not utilize the HsGSK3 peptide as a substrate
- kinase activity with HsGSK3 peptide in Mg2+ / without Mn2+ (words) (HsGSK3 peptide; 50 μM HsGSK3 peptide, 250 μM ATP, listed as EhAGCK1): could not accept HsGSK3 peptide as substrate
- ion preference for kinase activity (HsGSK3 peptide; MgCl2 versus MnCl2 buffer, HsGSK3 peptide): only active in the presence of MnCl2 buffer; also recorded: maximum kinase activity in the presence of Mn^2+
- increase in kinase activity with HsGSK3 peptide in presence of Mn2+ (HsGSK3 peptide; Mn2+ present, 50 μM HsGSK3 peptide, 250 μM ATP): 16 fold
- Fold change (MgCl2: MnCl2) (HsGSK3 peptide; S1 Table, kinase activity in MgCl2 and MnCl2 buffers, 50 μM HsGSK3 peptide, 250 μM ATP, 60 min, 30°C): 15.67
- autophosphorylation activity (words) (autophosphorylation): exhibited autophosphorylation activity
- autophosphorylation activity (words) (autophosphorylation; listed as EhAGCK1): able to accept biotin-ATP as substrate and underwent autophosphorylation
